{
  "source": "patent US11723890B2",
  "about": "“Methods of treatment using an mTORC1 modulator” (Navitor Pharmaceuticals, Inc., priority 2019, dated 2023)",
  "key": {"[1]": {"system": "cynomolgus monkey", "experiment": "Single oral dose toxicology study in cynomolgus monkey", "type": "in vivo", "experimental": "Nonclinical toxicology studies have been performed with compound A in the rat and cynomolgus monkey. Adverse effects were not observed after single oral doses of up to 500 mg/kg in rat and up to 2000 mg/kg in cynomolgus monkey."}, "[2]": {"system": "qEEG and event-related potential (ERP)", "experiment": "Example 3: qEEG and event-related potential pharmacodynamics", "type": "in vivo, human", "conditions": "healthy males", "excerpt": "Pharmacodynamic Endpoints: The primary pharmacodynamic endpoint was the change from baseline in the difference between the compound A group and the placebo group on qEEG parameters, including:\nFractal and oscillatory EEG band amplitudes\nFractal and oscillatory EEG band intra- and interhemispheric coherences\nThe secondary pharmacodynamic endpoints were the changes from baseline in the difference between the compound A group and the placebo group in ERP parameters, including: • Mismatch negativity (MMN) amplitude and latency • P300a amplitude and latency • P300b amplitude and latency • N100 amplitude and latency • N200 amplitude and latency • P200 amplitude and latency • Auditory steady-state response (ASSR) peak-to-peak amplitude • ASSR event-related spectral perturbation (ERSP) • ASSR inter-trial phase coherence (ITPC) • Mean time scores of qEEG parallel factor analysis (PARAFAC) atoms endpoints\nPharmacodynamics were assessed via qEEG and event-related potential (ERP). Frequent PK sampling was included in the study to evaluate the PK of two doses of compound A given approximately 48 hours apart. A PK/PD model was developed that measures qEEG and ERP changes as a function of plasma concentration of compound A as well as determines whether there are any PK/PD differences between Dose 1 and Dose 2 effects."}, "[3]": {"system": "healthy volunteers", "experiment": "Example 4: blinded multiple ascending dose safety and tolerability study", "type": "in vivo, human", "conditions": "Cohort 1 (800 mg) and Cohort 2 (1600 mg) once daily for 7 days, compound A or placebo (6:2), preliminary", "experimental": "Navitor Pharmaceuticals, Inc. (Navitor) is currently conducting a study to assess the safety, tolerability, and PK of multiple ascending doses of compound A (400 mg, 800 mg, 1600 mg, 2400 mg, and potentially 3000 mg) versus matched placebo in healthy volunteers. This study also includes an assessment of CSF and clinical biomarkers, as well as a cognition test.\nThe study is planned for 4 cohorts and 1 additional optional cohort. Up to approximately 40 healthy volunteers will be randomly assigned to double-blind treatment. In the initial 4 cohorts, eight (8) subjects will be randomized (3:1; compound A:placebo) in each of the four dosage-level cohorts (800 mg, 1600 mg, 2400 mg, and 400 mg) administered as an oral solution. Within each cohort, six subjects will be randomized to receive compound A and two subjects will be randomized to receive placebo. Each subject randomized will receive compound A or placebo once daily for 7 days. Subjects will dose in the morning and will dose each day at the same time. For cohort 3 (2400 mg), each subject will return to the unit after a minimum 5-day washout to receive an additional single dose of compound A or placebo under fed conditions in Period 2. Assessments of safety, tolerability, and PK as well as exploratory biomarker and clinical measures will occur.\nCohort 1 (800 mg) and Cohort 2 (1600 mg) have been completed. […]"}, "[4]": {"system": "healthy volunteers", "experiment": "Example 1 Part A: safety and tolerability of single ascending doses in healthy volunteers", "source_text": "Up to approximately 48 healthy volunteers were randomly assigned to double-blind treatment. […] The in-house period was 6 days/5 nights. The duration of each subject's participation was up to 39 days, including screen/washout and follow-up.\nThe study included standard safety and tolerability assessments—e.g., physical, neurological, and psychiatric examinations, vital signs, oral temperature, respiration rate, weight, 12-lead paper electrocardiograms (pECGs), dECGs, clinical laboratory tests, monitoring of adverse events (AEs) and concomitant medications, and, in Part A of the study, cardiovascular (CV) telemetry and safety EEGs.\nSubjects were required to abstain from eating or drinking for two hours prior to and after dosing. • Subjects randomized to receive placebo (purified water and Flavor Sweet-SF™): Single dose placebo was administered orally as a solution on Day 1. Subjects were required to abstain from eating or drinking for two hours prior to and after dosing.\nAn AE is any unfavorable and unintended sign (including an abnormal laboratory finding), symptom, or disease temporally associated with the use of a medical treatment or procedure, whether or not considered related to the medical treatment or procedure. […] An AE term is a unique representation of a specific event used for medical documentation and scientific analyses.\nA TEAE is an AE that either commenced following initiation of study treatment or was present prior to study treatment but increased in frequency or severity following initiation of study treatment."}, "[5]": {"conditions": "2400 mg, not evident in placebo group"}},
  "data": [
    {"smiles": "CC(C)(C[C@H](N)C(=O)O)C(F)F", "note": "[Compound A, (S)-2-amino-5,5-difluoro-4,4-dimethylpentanoic acid]", "values": [
      {"measurement": "single oral dose up to which adverse effects were not observed", "setting": "[1]", "result": "up to 2000 mg/kg"},
      {"measurement": "time to EEG activation after the first and second doses", "setting": "[2]; 2400 mg Day 1 and Day 3", "result": "≤ 1", "unit": "h"},
      {"measurement": "ASSR high-frequency (harmonic) resonances", "setting": "[2]; [5]", "result": "increased"},
      {"measurement": "peak latency of N100, P200, P300A components in auditory oddball tasks", "setting": "[2]; [5]", "result": "reduced"},
      {"measurement": "changes in low- and high-frequency EEG bands", "setting": "[2]; 2400 mg, qEEG", "result": "dose-dependent decreases in low-frequency EEG bands (delta, theta) and increases in high-frequency EEG bands (gamma)"},
      {"measurement": "delta and theta band amplitudes", "setting": "[2]; 2400 mg, qEEG", "result": "significantly decreased"},
      {"measurement": "high-frequency band amplitudes (higher beta and gamma bands)", "setting": "[2]; 2400 mg, qEEG", "result": "increased"},
      {"measurement": "qEEG band coherences", "setting": "[2]; 2400 mg, qEEG", "result": "increased coherence in alpha, beta, and gamma bands"},
      {"measurement": "theta-beta ratios", "setting": "[2]; 2400 mg, qEEG", "result": "decreased"},
      {"measurement": "alpha band amplitudes", "setting": "[2]; 2400 mg, qEEG, within 1 hour after dosing", "result": "decreased"},
      {"measurement": "neural activation on qEEG", "setting": "[2]; single dose 2400 mg, versus placebo", "result": "rapid and significant neural activation"},
      {"measurement": "labs, vital signs or ECG", "setting": "[3]", "result": "No clinically significant abnormalities were observed"},
      {"measurement": "severity of AEs", "setting": "[3]", "result": "mild"},
      {"measurement": "Number of subjects with ≥1 TEAE", "setting": "[4]; all doses Total, N = 36", "result": "13 (36.1) n (%)"},
      {"measurement": "TEAE: Abdominal pain", "setting": "[4]; all doses Total, N = 36", "result": "1 n (%)"},
      {"measurement": "TEAE: Abdominal pain lower", "setting": "[4]; all doses Total, N = 36", "result": "1 n (%)"},
      {"measurement": "TEAE: Blood creatine phosphokinase increased", "setting": "[4]; all doses Total, N = 36", "result": "1 n (%)"},
      {"measurement": "TEAE: Dermatitis contact", "setting": "[4]; all doses Total, N = 36", "result": "3 n (%)"},
      {"measurement": "TEAE: Diarrhea", "setting": "[4]; all doses Total, N = 36", "result": "1 n (%)"},
      {"measurement": "TEAE: Dizziness", "setting": "[4]; all doses Total, N = 36", "result": "4 n (%)"},
      {"measurement": "TEAE: Dry mouth", "setting": "[4]; all doses Total, N = 36", "result": "1 n (%)"},
      {"measurement": "TEAE: Headache", "setting": "[4]; all doses Total, N = 36", "result": "2 n (%)"},
      {"measurement": "TEAE: Hot flush", "setting": "[4]; all doses Total, N = 36", "result": "1 n (%)"},
      {"measurement": "TEAE: Lipase increased", "setting": "[4]; all doses Total, N = 36", "result": "1 n (%)"},
      {"measurement": "TEAE: Nausea", "setting": "[4]; all doses Total, N = 36", "result": "3 n (%)"},
      {"measurement": "TEAE: Presyncope", "setting": "[4]; all doses Total, N = 36", "result": "1 n (%)"},
      {"measurement": "TEAE: Somnolence", "setting": "[4]; all doses Total, N = 36", "result": "1 n (%)"},
      {"measurement": "TEAE: Vomiting", "setting": "[4]; all doses Total, N = 36", "result": "1 n (%)"},
      {"measurement": "Total number of TEAEs", "setting": "[4]; all doses Total, N = 36", "result": "22 n (%)"},
      {"measurement": "Number of subjects with ≥1 TEAE", "setting": "[4]; single oral 150 mg, N = 6", "result": "2 (33.3) n (%)"},
      {"measurement": "TEAE: Abdominal pain lower", "setting": "[4]; single oral 150 mg, N = 6", "result": "1 n (%)"},
      {"measurement": "TEAE: Dizziness", "setting": "[4]; single oral 150 mg, N = 6", "result": "1 n (%)"},
      {"measurement": "Total number of TEAEs", "setting": "[4]; single oral 150 mg, N = 6", "result": "3 n (%)"},
      {"measurement": "Number of subjects with ≥1 TEAE", "setting": "[4]; single oral 300 mg, N = 6", "result": "2 (33.3) n (%)"},
      {"measurement": "TEAE: Blood creatine phosphokinase increased", "setting": "[4]; single oral 300 mg, N = 6", "result": "1 n (%)"},
      {"measurement": "TEAE: Lipase increased", "setting": "[4]; single oral 300 mg, N = 6", "result": "1 n (%)"},
      {"measurement": "Total number of TEAEs", "setting": "[4]; single oral 300 mg, N = 6", "result": "2 n (%)"},
      {"measurement": "Number of subjects with ≥1 TEAE", "setting": "[4]; single oral 600 mg, N = 6", "result": "1 (16.7) n (%)"},
      {"measurement": "TEAE: Dizziness", "setting": "[4]; single oral 600 mg, N = 6", "result": "1 n (%)"},
      {"measurement": "TEAE: Presyncope", "setting": "[4]; single oral 600 mg, N = 6", "result": "1 n (%)"},
      {"measurement": "Total number of TEAEs", "setting": "[4]; single oral 600 mg, N = 6", "result": "1 n (%)"},
      {"measurement": "Number of subjects with ≥1 TEAE", "setting": "[4]; single oral 1000 mg, N = 6", "result": "1 (16.7) n (%)"},
      {"measurement": "TEAE: Dizziness", "setting": "[4]; single oral 1000 mg, N = 6", "result": "1 n (%)"},
      {"measurement": "Total number of TEAEs", "setting": "[4]; single oral 1000 mg, N = 6", "result": "1 n (%)"},
      {"measurement": "Number of subjects with ≥1 TEAE", "setting": "[4]; single oral 1600 mg, N = 6", "result": "4 (66.7) n (%)"},
      {"measurement": "TEAE: Abdominal pain", "setting": "[4]; single oral 1600 mg, N = 6", "result": "1 n (%)"},
      {"measurement": "TEAE: Dermatitis contact", "setting": "[4]; single oral 1600 mg, N = 6", "result": "2 n (%)"},
      {"measurement": "TEAE: Diarrhea", "setting": "[4]; single oral 1600 mg, N = 6", "result": "1 n (%)"},
      {"measurement": "TEAE: Dizziness", "setting": "[4]; single oral 1600 mg, N = 6", "result": "2 n (%)"},
      {"measurement": "TEAE: Dry mouth", "setting": "[4]; single oral 1600 mg, N = 6", "result": "1 n (%)"},
      {"measurement": "TEAE: Headache", "setting": "[4]; single oral 1600 mg, N = 6", "result": "1 n (%)"},
      {"measurement": "TEAE: Nausea", "setting": "[4]; single oral 1600 mg, N = 6", "result": "1 n (%)"},
      {"measurement": "TEAE: Somnolence", "setting": "[4]; single oral 1600 mg, N = 6", "result": "1 n (%)"},
      {"measurement": "Total number of TEAEs", "setting": "[4]; single oral 1600 mg, N = 6", "result": "10 n (%)"},
      {"measurement": "Number of subjects with ≥1 TEAE", "setting": "[4]; single oral 2400 mg, N = 6", "result": "3 (50.0) n (%)"},
      {"measurement": "TEAE: Dermatitis contact", "setting": "[4]; single oral 2400 mg, N = 6", "result": "1 n (%)"},
      {"measurement": "TEAE: Headache", "setting": "[4]; single oral 2400 mg, N = 6", "result": "1 n (%)"},
      {"measurement": "TEAE: Nausea", "setting": "[4]; single oral 2400 mg, N = 6", "result": "2 n (%)"},
      {"measurement": "TEAE: Vomiting", "setting": "[4]; single oral 2400 mg, N = 6", "result": "1 n (%)"},
      {"measurement": "Total number of TEAEs", "setting": "[4]; single oral 2400 mg, N = 6", "result": "5 n (%)"},
      {"measurement": "Vitals, labs, and ECG findings", "setting": "[4]; single oral doses 150-2400 mg", "result": "unremarkable"},
      {"measurement": "maximally tolerated dose", "setting": "[4]; single oral doses 150-2400 mg", "result": "not reached"},
      {"measurement": "safety and tolerability", "setting": "[4]; single oral doses 150-2400 mg", "result": "well tolerated, with no serious adverse events, and no discontinuations due to adverse events"},
      {"measurement": "severity of adverse events", "setting": "[4]; single oral doses 150-2400 mg", "result": "mild"},
      {"measurement": "safety and tolerability", "setting": "[4]; single oral doses 150-2400 mg, listed as compound A", "result": "generally safe and well tolerated"},
      {"measurement": "BPRS+ and CADSS scores", "setting": "[4]; single oral doses 150-2400 mg, vs placebo", "result": "comparable as between the treatment groups"}
    ]}
  ]
}
